Experimental data: the Kinase Knowledgebase extract (Sharma et al. 2016)

What was measured:
PIK3CG (human) = PIK3CG (human) (UniProt P48736); assay: Inhibition of PIK3CG Kinase Activity
PIK3CA (human) = PIK3CA (human) (UniProt P42336); assay: Inhibition of PIK3CA Kinase Activity
PIK3CB (Human) = PIK3CB (Human) (UniProt P42338); assay: Inhibition of PIK3CB Kinase Activity
PIK3CD (Human) = PIK3CD (Human) (UniProt O00329); assay: Inhibition of PIK3CD Kinase Activity

Measured: IC50

Chain of PIK3CB (Human) (P42338 whole entry, looked up): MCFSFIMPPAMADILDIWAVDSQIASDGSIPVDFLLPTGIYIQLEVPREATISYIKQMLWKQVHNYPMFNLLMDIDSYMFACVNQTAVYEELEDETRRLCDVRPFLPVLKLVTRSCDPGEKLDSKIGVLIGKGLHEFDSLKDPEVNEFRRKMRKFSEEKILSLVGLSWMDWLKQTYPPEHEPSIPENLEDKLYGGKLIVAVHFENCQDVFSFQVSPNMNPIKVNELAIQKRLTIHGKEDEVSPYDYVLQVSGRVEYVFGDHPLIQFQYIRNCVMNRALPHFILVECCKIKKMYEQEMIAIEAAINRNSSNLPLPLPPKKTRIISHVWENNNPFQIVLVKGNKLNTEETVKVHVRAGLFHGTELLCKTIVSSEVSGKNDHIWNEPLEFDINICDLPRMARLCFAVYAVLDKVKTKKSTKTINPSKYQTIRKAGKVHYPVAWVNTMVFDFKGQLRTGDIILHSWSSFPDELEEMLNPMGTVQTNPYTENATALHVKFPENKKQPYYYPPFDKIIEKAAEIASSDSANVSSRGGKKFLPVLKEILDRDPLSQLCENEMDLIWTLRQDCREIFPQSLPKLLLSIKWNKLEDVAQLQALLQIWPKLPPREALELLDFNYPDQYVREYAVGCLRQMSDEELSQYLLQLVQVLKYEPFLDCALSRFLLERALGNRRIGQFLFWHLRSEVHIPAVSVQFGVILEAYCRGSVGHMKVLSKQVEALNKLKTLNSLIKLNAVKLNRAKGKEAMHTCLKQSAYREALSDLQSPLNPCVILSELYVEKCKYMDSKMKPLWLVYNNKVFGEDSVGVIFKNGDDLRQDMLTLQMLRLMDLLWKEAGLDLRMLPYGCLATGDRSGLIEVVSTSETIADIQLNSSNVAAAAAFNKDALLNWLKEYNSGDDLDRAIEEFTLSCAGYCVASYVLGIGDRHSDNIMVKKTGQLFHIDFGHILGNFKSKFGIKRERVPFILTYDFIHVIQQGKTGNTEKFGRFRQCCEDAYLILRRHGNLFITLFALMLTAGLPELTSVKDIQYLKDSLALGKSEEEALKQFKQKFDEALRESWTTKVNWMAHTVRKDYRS
Chain of PIK3CG (human) (P48736 whole entry, looked up): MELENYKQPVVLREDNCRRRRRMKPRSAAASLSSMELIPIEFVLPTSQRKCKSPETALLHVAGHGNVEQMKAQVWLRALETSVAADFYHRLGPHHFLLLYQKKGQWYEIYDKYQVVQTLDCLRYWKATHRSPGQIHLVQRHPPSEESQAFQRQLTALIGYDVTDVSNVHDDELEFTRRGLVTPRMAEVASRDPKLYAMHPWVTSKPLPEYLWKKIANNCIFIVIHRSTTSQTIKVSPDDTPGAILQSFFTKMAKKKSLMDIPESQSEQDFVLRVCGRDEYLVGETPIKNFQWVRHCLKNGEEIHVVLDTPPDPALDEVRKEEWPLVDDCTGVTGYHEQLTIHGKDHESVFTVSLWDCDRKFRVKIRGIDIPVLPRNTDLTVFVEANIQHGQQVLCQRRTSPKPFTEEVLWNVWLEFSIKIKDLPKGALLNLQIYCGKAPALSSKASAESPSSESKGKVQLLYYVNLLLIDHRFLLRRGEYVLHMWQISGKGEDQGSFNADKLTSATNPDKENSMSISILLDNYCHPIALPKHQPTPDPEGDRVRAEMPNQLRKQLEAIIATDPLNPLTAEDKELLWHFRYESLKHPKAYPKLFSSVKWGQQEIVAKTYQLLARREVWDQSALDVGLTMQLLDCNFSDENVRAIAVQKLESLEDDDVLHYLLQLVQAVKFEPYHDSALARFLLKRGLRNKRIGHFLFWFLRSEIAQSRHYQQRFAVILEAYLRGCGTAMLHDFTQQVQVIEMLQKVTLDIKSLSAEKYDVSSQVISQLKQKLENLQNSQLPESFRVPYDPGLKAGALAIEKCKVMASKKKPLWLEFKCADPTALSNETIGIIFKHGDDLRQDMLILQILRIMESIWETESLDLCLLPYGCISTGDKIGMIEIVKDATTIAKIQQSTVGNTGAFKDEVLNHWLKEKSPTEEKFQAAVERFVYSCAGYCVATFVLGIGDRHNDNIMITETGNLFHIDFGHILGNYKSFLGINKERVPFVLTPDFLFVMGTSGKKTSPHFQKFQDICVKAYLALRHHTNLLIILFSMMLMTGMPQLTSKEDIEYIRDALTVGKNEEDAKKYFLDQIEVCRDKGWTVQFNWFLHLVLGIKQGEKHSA
Chain of PIK3CA (human) (P42336 whole entry, looked up): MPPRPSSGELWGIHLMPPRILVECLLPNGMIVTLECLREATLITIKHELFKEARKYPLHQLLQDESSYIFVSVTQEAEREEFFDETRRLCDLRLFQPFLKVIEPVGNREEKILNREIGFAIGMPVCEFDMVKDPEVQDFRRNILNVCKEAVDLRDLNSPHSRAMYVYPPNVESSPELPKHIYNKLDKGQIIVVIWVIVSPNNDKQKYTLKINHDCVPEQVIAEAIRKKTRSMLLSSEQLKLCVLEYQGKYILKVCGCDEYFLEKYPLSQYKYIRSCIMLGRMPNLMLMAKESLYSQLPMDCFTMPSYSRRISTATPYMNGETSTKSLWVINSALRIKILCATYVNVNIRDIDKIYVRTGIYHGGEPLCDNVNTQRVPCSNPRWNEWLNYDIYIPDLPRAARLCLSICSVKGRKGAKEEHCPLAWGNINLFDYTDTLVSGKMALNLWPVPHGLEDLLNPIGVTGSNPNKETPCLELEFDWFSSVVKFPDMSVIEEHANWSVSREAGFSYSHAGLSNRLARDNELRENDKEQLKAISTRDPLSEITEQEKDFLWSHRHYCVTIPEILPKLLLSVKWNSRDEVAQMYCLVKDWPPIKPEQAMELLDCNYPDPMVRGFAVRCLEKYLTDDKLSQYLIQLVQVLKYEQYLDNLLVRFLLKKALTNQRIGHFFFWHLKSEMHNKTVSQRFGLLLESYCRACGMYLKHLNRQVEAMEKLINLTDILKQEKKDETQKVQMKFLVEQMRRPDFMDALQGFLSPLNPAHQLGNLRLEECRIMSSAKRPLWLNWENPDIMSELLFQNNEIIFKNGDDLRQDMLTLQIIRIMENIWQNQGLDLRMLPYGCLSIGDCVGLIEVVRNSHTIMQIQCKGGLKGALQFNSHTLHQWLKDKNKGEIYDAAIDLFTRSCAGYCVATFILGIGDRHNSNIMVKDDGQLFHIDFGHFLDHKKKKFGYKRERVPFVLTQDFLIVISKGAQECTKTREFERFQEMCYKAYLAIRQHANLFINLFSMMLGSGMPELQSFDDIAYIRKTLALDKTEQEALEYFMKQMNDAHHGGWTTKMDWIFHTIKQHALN
Chain of PIK3CD (Human) (O00329 whole entry, looked up): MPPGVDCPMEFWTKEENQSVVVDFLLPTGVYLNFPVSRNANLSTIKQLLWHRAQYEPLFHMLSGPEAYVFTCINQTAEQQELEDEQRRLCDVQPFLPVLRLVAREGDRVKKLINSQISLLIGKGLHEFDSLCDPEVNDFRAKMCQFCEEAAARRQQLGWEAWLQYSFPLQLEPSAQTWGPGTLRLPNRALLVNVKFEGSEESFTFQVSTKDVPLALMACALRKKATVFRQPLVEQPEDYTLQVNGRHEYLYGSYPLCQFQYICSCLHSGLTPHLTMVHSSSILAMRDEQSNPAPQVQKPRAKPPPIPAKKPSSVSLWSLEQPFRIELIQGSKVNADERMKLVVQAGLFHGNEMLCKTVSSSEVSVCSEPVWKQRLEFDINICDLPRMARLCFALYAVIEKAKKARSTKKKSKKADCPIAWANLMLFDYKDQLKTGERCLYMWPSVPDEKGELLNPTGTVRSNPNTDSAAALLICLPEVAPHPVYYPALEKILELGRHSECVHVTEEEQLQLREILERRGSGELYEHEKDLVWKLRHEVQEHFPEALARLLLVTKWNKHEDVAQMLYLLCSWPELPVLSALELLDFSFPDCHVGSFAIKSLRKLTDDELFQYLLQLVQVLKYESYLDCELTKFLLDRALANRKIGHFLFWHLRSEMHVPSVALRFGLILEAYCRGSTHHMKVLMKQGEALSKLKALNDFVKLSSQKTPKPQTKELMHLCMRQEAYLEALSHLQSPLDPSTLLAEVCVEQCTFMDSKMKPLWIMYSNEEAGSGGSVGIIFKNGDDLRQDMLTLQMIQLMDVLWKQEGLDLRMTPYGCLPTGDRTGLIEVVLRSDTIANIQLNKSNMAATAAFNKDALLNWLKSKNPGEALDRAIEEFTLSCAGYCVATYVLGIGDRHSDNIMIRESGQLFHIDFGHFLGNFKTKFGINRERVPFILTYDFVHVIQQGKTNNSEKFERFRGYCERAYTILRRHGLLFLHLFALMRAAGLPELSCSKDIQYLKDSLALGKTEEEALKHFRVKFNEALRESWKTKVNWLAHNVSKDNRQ

Nc1ncc(-c2nc(N3CCOCC3)nc3c2cnn3C2CCOCC2)cn1
< 1000 nM: PIK3CG (human) | PIK3CA (human) | PIK3CB (Human) | PIK3CD (Human)

CN1CCN(C(=O)N2CCC(n3ncc4c(-c5cnc(N)nc5)nc(N5CCOCC5)nc43)CC2)CC1
< 1000 nM: PIK3CG (human) | PIK3CA (human) | PIK3CB (Human) | PIK3CD (Human)

CC(C)(O)Cn1ncc2c(-c3cnc(N)nc3)nc(N3CCOCC3)nc21
< 1000 nM: PIK3CG (human) | PIK3CA (human) | PIK3CB (Human) | PIK3CD (Human)
